Assay [1] in a line: Late stage counterscreen results from the probe development effort to identify activators of signal transducer and activator of transcription 1 (STAT1): luminescence-based cell-based dose response assay to identify cytotoxic compounds. Format: functional. In general terms: A counterscreen serves to expose hits that act by an unwanted route or on another target.
For the next assay, the target named is Cytochrome P450 2C19 (Homo sapiens, UniProt P33261). The experiment in a line: Cytochrome panel assay with activity outcomes. Panel member name: p450-cyp2c19 Compounds with AC50 equal or less than 10 uM are considered active. Format: functional. The conditions noted are these: read-out: AC50.
For a further assay, the target named is Cytochrome P450 3A4 (Homo sapiens, UniProt P08684).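 Also: CYP3A4 tested as one member of a cytochrome P450 panel screen.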
The next assay addresses Ephrin type-A receptor 4 (Mus musculus, UniProt Q03137). The assay can be described thus: EphA4 ligand-binding antagonists – biochemical, colorimetric, mouse EphA4, primary screen (AID 689). Format: functional.
Assay [2] has as its target Voltage-gated inwardly rectifying potassium channel KCNH2 (Homo sapiens, UniProt Q12809). The experiment in a line: concentration-dependent hERG rescue from blockers – cell-based, thallium flux, dose response (AID 2121). Format: ADME.
The target of assay [3] is Peroxisome proliferator-activated receptor gamma/Nuclear receptor coactivator 3 (Homo sapiens, UniProt P37231). The experiment in a line: TR-FRET dose response biochemical High Throughput Screening assay for agonists of the steroid receptor coactivator 3 (SRC-3) recruitment by the peroxisome proliferator-activated receptor gamma (PPAR gamma): non-selective agonists. [Related pubchem assays: 1301 (Confirmation screen.), 1048 (Primary screen.)]. Format: functional. (Time-resolved FRET reads energy transfer from a long-lived donor to a nearby acceptor.)

The next assay concerns the target Procathepsin L (Homo sapiens, UniProt P07711). The assay can be described thus: CTSL1 protease inhibition – biochemical, QFRET, 1536-well, counter-screen for M1/M17 aminopeptidase inhibitor project, dose response (AID 2214).
The target in assay [4] is Peroxisome proliferator-activated receptor gamma/Nuclear receptor coactivator 1 (Homo sapiens, UniProt P37231). The assay can be described thus: TR-FRET dose response biochemical High Throughput Screening assay for agonists of the steroid receptor coactivator 1 (SRC-1) recruitment by the peroxisome proliferator-activated receptor gamma (PPAR gamma): non-selective agonists. [Related pubchem assays (depositor defined):AID1300, AID1808, AID504735, AID631]. Format: protein assay.

For another assay, the target named is T1, Aminopeptidase N (Plasmodium falciparum FcB1/Columbia, UniProt O96935).
T1 sequence (O96935 whole entry): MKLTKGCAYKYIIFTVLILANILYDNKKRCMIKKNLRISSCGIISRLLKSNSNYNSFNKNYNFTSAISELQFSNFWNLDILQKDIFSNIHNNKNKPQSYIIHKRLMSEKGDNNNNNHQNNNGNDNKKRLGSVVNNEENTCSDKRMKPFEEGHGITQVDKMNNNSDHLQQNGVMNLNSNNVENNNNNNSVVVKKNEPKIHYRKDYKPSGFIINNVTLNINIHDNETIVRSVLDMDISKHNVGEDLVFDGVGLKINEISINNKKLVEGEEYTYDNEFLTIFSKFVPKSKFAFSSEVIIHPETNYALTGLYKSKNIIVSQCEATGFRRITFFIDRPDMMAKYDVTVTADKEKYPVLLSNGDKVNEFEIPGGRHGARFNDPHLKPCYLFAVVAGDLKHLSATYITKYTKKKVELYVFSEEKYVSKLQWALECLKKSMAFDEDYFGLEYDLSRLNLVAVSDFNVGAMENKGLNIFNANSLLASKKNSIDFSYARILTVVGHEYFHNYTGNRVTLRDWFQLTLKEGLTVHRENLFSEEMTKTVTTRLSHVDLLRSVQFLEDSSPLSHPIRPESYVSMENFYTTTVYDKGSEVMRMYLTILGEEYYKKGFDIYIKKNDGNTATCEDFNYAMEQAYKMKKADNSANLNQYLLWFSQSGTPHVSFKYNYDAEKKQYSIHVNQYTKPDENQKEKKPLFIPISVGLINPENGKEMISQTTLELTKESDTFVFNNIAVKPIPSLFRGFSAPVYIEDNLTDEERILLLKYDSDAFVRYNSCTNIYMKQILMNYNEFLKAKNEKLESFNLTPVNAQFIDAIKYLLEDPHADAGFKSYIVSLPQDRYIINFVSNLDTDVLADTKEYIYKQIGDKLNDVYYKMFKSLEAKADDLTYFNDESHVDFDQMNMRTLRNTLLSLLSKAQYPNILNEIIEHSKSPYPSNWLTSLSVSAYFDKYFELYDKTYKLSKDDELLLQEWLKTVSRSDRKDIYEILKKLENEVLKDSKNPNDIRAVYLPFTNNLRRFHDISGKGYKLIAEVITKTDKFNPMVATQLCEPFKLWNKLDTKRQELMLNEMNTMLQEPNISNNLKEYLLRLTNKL
The assay can be described thus: malaria alanyl aminopeptidase activity blockers – biochemical, fluorogenic H-Leu-NHMec substrate, 1536-well (AID 1445). On the set-up: species or system Plasmodium falciparum 3D7, 3D7.

Assay [5] has as its target T2, Corticotropin-releasing factor receptor 2/Corticotropin-releasing factor-binding protein (Homo sapiens, UniProt P24387+Q13324).
T2 sequence (Q13324 whole entry): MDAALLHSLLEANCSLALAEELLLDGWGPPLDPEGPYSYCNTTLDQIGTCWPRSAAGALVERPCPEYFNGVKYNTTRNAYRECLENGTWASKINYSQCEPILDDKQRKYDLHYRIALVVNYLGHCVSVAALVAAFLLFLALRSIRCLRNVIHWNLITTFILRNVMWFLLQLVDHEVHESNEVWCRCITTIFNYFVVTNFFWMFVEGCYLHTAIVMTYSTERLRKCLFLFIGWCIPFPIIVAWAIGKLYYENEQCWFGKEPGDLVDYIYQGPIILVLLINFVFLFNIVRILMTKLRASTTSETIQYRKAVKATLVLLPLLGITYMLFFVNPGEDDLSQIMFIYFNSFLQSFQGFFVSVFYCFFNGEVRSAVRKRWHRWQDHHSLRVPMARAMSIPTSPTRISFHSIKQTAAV
T2 sequence (P24387 whole entry): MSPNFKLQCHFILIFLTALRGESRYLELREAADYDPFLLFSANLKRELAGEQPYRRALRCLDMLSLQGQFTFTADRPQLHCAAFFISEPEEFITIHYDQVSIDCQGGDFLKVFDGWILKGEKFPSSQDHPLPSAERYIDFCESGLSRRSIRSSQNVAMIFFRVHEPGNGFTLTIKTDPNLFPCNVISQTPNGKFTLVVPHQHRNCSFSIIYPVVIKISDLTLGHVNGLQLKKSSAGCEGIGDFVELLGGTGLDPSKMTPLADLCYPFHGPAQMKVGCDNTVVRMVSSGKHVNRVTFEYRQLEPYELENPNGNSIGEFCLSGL
The assay can be described thus: activators of CRF receptor 2 with binding protein – uHTS hits, confirmation (AID 602473). The conditions noted are these: read-out: EC50_Mean. Format: functional.

Another assay addresses Aspartyl aminopeptidase (Plasmodium falciparum 3D7, UniProt Q8I2J3). The experiment in a line: Counterscreen for inhibitors of M1 and M17 aminopeptidases: QFRET-based biochemical high throughput dose response assay for inhibitors of the Plasmodium falciparum M18 Aspartyl Aminopeptidase (PFM18AAP). [Related PubChem assays: 1619 (Screening assay (M17LAP inhibitors).), 1445 (Screening assay (M1AAP inhibitors).)].

The target in assay [6] is Peroxisome proliferator-activated receptor gamma/Nuclear receptor coactivator 2 (Homo sapiens, UniProt P37231). The assay can be described thus: TR-FRET dose response biochemical High Throughput Screening assay for agonists of the steroid receptor coactivator 2 (SRC-2) recruitment by the peroxisome proliferator-activated receptor gamma (PPAR gamma): non-selective agonists. [Related pubchem assays: 1297, 1032 ]. Format: functional.

Assay [7] addresses T2, Corticotropin-releasing factor receptor 2/Corticotropin-releasing factor-binding protein. The assay can be described thus: Dose Response confirmation of uHTS hits for small molecule antagonists of the CRF-binding protein and CRF-R2 receptor complex. Format: functional. The conditions noted are these: read-out: IC50_Mean.
In assay [8] the target is T3, Histone-lysine N-methyltransferase NSD2 (Homo sapiens, UniProt O96028).
T3 sequence (O96028 whole entry): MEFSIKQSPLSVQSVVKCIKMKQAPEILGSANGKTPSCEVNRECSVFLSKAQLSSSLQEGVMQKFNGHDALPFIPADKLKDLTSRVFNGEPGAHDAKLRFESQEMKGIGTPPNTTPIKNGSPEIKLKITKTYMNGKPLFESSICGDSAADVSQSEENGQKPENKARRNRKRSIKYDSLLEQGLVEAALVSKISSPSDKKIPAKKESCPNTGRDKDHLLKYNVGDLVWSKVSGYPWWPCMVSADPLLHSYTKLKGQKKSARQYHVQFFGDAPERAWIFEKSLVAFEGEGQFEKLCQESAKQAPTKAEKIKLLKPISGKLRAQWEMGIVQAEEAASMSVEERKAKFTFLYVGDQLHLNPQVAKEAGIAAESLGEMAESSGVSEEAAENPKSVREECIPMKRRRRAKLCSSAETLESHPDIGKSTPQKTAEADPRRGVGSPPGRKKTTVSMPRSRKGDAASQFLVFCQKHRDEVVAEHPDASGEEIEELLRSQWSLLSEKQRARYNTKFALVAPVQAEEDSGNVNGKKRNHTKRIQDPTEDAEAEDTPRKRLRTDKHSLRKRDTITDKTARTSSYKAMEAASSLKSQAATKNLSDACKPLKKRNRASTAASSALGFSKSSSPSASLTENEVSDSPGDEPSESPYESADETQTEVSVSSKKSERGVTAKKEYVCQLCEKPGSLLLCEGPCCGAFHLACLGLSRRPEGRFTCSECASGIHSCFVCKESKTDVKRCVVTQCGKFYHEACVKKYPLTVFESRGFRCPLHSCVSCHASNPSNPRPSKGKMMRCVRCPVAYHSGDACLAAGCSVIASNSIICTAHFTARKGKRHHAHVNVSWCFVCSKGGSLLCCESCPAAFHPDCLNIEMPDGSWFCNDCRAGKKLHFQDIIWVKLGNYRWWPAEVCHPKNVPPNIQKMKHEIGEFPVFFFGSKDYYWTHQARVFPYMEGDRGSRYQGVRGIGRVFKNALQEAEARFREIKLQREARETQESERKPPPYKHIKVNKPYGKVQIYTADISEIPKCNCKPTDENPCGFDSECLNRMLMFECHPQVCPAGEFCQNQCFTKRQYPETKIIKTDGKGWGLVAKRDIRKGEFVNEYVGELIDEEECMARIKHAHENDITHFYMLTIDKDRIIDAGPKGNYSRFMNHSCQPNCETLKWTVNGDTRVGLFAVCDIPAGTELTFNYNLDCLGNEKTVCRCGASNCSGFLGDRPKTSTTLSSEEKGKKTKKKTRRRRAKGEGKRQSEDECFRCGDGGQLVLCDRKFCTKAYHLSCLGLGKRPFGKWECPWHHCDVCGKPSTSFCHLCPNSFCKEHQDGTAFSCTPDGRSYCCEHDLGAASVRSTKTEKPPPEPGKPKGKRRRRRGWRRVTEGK
Format: biochemical.

Assay [9] concerns the target Induced myeloid leukemia cell differentiation protein Mcl-1 (Homo sapiens, UniProt Q07820). Format: functional.
The target in assay [10] is T4, Mannose-6-phosphate isomerase (Homo sapiens, UniProt P34949).
T4 sequence (P34949 whole entry): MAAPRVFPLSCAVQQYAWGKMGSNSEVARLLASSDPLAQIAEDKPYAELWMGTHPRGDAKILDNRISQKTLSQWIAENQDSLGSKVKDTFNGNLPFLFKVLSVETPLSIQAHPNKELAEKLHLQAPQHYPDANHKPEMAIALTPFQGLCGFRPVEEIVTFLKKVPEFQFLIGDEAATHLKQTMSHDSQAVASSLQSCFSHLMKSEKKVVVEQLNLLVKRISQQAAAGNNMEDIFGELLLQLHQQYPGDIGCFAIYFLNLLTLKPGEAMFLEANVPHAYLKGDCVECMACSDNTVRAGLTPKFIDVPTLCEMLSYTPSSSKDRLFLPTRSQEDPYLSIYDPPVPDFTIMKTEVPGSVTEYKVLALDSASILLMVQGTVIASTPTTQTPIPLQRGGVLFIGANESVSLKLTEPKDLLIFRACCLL
The assay can be described thus: MPI inhibition at elevated mannose 6-phosphate – biochemical, fluorescence intensity, high mannose 6-phosphate, primary screen (AID 1220).

The nature of assay [11]: fluconazole-exposed Candida albicans growth modulators – fluorescence, retest, confirmation (AID 2467). Format: functional, cell-based.
A short description of assay [12]: NIH-3T3 fibroblast cytotoxicity, dose response, cytotoxicity control, cell-based, fluorescence, Alamar Blue, secondary assay (AID 2327).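 Also: NIH-3T3 mouse fibroblasts cultured with fluconazole at 8 µg/mL.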 Format: functional.
Assay [13] is described as follows: Luminescent dose response cell-based high throughput screening assay for inhibitors of the Janus kinase 2 mutant JAK2V617F. [Related pubchem assays: 1446 (Primary screen.), 1521 (Confirmation assay.), 1486 (Counter screen.)]. Format: functional.

The source made the active and inactive calls.

Chain of Procathepsin L (P07711 whole entry): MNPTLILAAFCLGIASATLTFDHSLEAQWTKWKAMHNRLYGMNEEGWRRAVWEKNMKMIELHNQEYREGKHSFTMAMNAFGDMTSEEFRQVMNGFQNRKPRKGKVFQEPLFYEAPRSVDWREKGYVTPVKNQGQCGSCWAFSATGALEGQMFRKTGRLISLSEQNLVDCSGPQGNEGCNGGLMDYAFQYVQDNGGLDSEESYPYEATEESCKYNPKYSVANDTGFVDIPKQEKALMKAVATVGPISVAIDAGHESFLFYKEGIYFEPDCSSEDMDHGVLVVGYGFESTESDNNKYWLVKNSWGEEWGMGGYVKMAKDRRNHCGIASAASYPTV
Chain of Peroxisome proliferator-activated receptor gamma/Nuclear receptor coactivator 3 (P37231 whole entry): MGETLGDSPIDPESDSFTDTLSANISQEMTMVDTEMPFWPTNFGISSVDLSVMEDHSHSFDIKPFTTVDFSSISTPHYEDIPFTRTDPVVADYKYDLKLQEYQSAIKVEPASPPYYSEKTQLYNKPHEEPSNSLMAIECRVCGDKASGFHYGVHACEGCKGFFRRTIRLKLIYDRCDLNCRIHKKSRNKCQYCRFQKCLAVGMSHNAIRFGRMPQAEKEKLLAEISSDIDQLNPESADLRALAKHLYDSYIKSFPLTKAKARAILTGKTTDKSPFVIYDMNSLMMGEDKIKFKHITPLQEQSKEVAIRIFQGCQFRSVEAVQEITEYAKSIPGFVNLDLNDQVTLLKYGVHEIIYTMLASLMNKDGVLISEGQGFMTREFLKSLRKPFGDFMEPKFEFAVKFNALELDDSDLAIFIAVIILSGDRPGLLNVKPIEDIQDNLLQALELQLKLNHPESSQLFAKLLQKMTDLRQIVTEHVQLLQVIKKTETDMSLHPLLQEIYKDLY
Chain of Peroxisome proliferator-activated receptor gamma/Nuclear receptor coactivator 3 (Q9Y6Q9 whole entry, further chain): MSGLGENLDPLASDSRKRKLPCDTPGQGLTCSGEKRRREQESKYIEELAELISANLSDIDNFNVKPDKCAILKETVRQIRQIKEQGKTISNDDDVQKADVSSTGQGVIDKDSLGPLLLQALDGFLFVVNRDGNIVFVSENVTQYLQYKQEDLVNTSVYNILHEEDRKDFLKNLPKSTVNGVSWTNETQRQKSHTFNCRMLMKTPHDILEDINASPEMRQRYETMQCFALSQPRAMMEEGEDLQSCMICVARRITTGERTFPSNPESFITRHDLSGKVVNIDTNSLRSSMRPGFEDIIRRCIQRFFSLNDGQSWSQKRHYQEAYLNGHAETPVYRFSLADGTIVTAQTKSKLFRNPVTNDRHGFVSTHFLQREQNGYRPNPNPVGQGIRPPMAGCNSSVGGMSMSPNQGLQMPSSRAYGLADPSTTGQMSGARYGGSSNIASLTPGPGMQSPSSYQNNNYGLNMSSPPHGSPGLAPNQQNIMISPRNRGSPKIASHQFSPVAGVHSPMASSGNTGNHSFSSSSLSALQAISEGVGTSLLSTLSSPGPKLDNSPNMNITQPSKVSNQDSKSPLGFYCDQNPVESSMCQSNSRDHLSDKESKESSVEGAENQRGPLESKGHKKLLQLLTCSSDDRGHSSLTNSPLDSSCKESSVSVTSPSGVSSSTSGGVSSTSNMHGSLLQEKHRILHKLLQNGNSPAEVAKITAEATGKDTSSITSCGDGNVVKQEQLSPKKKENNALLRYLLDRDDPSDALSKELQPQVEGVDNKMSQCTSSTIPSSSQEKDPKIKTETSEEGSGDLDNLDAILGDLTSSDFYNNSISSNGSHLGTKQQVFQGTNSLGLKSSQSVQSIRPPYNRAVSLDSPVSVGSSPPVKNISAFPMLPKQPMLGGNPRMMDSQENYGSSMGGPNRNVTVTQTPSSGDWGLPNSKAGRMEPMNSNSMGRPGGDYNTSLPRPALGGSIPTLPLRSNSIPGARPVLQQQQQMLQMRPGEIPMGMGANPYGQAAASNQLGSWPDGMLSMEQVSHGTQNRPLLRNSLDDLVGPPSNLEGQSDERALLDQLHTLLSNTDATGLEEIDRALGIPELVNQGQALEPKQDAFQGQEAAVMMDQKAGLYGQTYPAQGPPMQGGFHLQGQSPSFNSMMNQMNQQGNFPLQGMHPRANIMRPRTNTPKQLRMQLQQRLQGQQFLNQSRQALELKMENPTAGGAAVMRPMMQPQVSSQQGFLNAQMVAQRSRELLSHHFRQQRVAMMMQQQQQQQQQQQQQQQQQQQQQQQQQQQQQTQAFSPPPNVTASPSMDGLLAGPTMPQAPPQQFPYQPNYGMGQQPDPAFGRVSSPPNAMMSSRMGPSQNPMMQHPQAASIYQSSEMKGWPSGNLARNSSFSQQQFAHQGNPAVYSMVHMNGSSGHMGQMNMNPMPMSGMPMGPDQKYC
Chain of Peroxisome proliferator-activated receptor gamma/Nuclear receptor coactivator 2 (P37231 whole entry): as the sequence (P37231 whole entry) above
Chain of Peroxisome proliferator-activated receptor gamma/Nuclear receptor coactivator 2 (Q15596 whole entry, further chain): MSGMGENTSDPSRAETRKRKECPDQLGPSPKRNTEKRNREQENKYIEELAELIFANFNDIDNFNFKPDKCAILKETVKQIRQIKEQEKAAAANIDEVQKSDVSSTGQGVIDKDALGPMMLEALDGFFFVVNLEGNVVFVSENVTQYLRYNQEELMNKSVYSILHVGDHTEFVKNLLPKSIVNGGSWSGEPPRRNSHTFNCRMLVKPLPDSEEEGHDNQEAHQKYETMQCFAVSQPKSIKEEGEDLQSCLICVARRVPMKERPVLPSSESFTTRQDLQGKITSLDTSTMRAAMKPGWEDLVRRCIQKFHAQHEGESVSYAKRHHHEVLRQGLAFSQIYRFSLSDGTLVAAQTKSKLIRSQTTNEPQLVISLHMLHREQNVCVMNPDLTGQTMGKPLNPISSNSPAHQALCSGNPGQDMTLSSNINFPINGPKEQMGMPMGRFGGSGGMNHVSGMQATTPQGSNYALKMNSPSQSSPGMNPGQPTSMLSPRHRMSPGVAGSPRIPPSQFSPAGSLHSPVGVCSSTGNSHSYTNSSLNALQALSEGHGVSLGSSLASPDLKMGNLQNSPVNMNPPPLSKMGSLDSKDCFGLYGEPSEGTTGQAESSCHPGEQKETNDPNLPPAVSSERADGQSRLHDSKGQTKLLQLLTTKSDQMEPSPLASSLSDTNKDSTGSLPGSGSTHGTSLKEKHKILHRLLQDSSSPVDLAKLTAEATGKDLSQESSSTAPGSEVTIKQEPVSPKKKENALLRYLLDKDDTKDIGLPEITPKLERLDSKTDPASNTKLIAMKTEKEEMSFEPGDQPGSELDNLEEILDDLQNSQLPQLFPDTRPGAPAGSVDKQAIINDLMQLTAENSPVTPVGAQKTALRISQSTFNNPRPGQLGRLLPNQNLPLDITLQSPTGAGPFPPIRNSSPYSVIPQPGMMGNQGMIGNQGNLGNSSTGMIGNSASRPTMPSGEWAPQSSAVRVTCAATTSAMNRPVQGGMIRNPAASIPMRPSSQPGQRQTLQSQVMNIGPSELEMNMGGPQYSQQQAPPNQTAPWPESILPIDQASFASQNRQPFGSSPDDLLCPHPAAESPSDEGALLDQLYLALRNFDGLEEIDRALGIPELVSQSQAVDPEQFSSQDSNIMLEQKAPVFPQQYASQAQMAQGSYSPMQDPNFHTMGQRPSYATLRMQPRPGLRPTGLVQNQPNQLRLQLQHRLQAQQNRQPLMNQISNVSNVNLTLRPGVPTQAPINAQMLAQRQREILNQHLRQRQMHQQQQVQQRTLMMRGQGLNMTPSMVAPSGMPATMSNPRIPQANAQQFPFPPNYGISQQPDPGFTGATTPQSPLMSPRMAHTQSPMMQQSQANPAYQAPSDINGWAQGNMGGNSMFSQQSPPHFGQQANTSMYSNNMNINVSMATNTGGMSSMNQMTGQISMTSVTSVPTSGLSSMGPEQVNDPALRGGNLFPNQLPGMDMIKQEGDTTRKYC
Chain of Induced myeloid leukemia cell differentiation protein Mcl-1 (Q07820 whole entry): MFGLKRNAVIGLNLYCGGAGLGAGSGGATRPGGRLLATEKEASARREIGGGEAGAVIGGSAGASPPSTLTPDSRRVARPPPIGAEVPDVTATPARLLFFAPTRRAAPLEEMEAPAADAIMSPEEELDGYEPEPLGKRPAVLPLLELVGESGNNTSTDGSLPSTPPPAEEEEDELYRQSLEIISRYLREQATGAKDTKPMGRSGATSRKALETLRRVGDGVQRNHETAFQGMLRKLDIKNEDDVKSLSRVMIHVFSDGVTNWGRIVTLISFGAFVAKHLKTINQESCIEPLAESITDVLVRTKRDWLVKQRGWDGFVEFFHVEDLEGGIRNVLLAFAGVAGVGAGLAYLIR
Chain of Cytochrome P450 2C19 (P33261 whole entry): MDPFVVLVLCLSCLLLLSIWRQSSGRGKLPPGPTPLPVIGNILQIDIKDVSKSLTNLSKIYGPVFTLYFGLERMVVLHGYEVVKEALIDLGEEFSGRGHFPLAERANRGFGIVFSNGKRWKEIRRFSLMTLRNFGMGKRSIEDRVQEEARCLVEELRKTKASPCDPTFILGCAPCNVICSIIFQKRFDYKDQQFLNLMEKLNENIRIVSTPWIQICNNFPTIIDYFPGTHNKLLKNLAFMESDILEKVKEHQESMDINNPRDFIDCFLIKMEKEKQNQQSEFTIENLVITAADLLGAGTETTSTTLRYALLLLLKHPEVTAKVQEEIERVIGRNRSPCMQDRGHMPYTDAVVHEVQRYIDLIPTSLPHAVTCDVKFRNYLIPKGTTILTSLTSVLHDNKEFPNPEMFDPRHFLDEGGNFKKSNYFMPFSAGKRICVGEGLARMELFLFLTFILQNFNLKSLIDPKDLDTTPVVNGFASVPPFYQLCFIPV

As to `COc1ccc(-c2csc(N3C(=O)CNC3=S)n2)cc1`, the IC50 in [1] is reported as > 55.7 µM (not active).

As usually defined, the AC50 is the midpoint of the concentration-response curve, whichever way the signal moves. Turning to `CCOC(=O)c1c(N=C(S)Nc2ccccc2)sc2c1CCN(CCc1ccccc1)C2`, the AC50 on Cytochrome P450 2C19 and on Cytochrome P450 3A4 was 22.4 µM (inconclusive) each time. Also, the IC50 on Ephrin type-A receptor 4 was 14.7 µM (active).

For `Cc1onc(-c2ccccc2)c1C(=O)NC(=S)Nc1sc2c(c1C#N)CCC(C)C2` (centres undefined), the EC50 in assay [2] was 0.86 µM (active).

Turning to `O=C1Nc2ccccc2/C1=C1/SC(=S)N(NC(=O)c2cccc(O)c2)C1=O`, the EC50 was > 79.4 µM (not active) in assay [3], > 79.4 µM (inactive) in assay [4], > 53 µM (inactive) in assay [5] and 41 µM (not active) in [6]. For the same compound, the IC50 against Procathepsin L is 31.8 µM (not active); on Aminopeptidase N it was 4.08 µM (active); against Aspartyl aminopeptidase, 39.5 µM (not active); in assay [7], < 0.368 µM (active).

`Cc1c(Cc2ccccc2)c(=O)oc2c(O)c(O)ccc12`: in assay [8], the AC50 is > 20 µM (inactive). The IC50 is 11.7 µM (not active) in assay [9], 29.6 µM (active) in assay [10] and 2.67 µM (active) in assay [13]. Also, the EC50 in assay [11] is 2.73 µM (active); in [12] it was 18.7 µM (active).

These data come from ChEMBL document CHEMBL1201862, “PubChem BioAssay data set” (2004).
